Earlier results, collected in paper PMC9516332 (Frontiers in Oncology, 2022).
Read-outs that look alike come from different tables or passages of the source.

Assays:
Conditions in all cases: cited from earlier work
[1] = target: T1, panel of 255 wild-type kinases (Homo sapiens, UniProt Q8NE63)
T1 sequence (Q8NE63 1-616): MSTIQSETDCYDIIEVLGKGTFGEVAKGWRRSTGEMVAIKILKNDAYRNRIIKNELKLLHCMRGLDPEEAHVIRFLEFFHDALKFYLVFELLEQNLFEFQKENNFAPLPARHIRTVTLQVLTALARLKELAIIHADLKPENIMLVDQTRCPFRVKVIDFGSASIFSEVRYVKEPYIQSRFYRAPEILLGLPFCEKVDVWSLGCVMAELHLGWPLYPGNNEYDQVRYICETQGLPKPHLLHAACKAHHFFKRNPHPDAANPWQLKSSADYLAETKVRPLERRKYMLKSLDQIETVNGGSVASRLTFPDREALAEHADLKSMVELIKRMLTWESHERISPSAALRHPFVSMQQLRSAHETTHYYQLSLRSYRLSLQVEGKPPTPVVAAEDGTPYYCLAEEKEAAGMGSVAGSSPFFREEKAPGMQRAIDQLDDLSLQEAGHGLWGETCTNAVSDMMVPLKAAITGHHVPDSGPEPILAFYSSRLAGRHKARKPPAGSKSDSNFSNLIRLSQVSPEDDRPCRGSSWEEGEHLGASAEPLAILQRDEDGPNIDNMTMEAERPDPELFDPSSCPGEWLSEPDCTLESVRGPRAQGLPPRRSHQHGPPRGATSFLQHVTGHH

[2] = target: panel of 255 wild-type kinases (Homo sapiens, UniProt Q15303)
[3] = target: T2, panel of 255 wild-type kinases (Homo sapiens, UniProt Q9UF33)
T2 sequence (Q9UF33 23-1036): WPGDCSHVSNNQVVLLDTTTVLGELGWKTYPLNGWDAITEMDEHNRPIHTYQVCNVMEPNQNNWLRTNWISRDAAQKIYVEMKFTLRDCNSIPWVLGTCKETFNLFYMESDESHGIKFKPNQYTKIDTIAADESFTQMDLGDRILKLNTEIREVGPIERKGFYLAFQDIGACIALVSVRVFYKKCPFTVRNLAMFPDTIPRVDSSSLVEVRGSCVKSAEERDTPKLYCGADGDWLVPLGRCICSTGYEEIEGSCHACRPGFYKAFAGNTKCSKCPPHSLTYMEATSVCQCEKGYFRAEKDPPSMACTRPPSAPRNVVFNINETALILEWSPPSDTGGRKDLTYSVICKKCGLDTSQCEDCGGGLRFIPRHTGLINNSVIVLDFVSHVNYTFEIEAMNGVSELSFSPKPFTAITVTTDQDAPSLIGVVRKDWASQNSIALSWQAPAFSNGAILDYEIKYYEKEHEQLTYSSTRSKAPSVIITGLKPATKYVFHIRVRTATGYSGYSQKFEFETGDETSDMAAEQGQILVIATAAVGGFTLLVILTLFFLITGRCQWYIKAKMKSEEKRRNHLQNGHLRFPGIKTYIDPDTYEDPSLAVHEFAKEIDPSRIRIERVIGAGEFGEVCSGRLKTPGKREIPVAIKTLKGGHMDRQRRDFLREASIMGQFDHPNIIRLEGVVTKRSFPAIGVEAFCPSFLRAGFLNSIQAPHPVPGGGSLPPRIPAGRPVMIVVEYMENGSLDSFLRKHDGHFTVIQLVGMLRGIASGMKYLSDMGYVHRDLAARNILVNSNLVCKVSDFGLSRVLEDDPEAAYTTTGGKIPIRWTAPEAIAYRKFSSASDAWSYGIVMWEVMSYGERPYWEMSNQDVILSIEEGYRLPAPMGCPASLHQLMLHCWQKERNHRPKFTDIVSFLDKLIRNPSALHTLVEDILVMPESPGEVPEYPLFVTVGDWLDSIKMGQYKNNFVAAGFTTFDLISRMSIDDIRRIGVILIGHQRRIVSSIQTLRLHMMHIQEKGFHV

[4] = target: panel of 255 wild-type kinases (Homo sapiens, UniProt P23458)
[5] = target: panel of 255 wild-type kinases (Homo sapiens, UniProt P11802)
[6] = target: T3, panel of 255 wild-type kinases (Homo sapiens, UniProt Q9BXA7)
T3 sequence (Q9BXA7 1-367): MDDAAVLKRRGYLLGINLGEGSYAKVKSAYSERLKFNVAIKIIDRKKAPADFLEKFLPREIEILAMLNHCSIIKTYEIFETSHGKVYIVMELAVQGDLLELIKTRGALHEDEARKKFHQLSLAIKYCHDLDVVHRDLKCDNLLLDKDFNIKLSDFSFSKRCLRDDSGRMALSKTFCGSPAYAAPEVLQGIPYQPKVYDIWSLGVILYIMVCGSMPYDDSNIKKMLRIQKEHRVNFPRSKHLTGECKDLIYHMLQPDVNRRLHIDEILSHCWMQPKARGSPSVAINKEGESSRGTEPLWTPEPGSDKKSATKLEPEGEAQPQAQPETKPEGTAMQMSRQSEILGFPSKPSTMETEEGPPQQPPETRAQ

[7] = target: panel of 255 wild-type kinases (Homo sapiens, UniProt P57059)
[8] = kinase HIPK4, 1 µmol/L single concentration, ref DOI: 10.1158/1535-7163.MCT-18-0877
[9] = kinase HER4, 1 µmol/L single concentration, ref DOI: 10.1158/1535-7163.MCT-18-0877
[10] = kinase EPHA6, 1 µmol/L single concentration, ref DOI: 10.1158/1535-7163.MCT-18-0877
[11] = kinase JAK1, 1 µmol/L single concentration, ref DOI: 10.1158/1535-7163.MCT-18-0877
[12] = CDK4/CycD3 kinase assay, 1 µmol/L single concentration, ref DOI: 10.1158/1535-7163.MCT-18-0877
[13] = kinase TSSK1, 1 µmol/L single concentration, ref DOI: 10.1158/1535-7163.MCT-18-0877
[14] = kinase SIK, 1 µmol/L single concentration, ref DOI: 10.1158/1535-7163.MCT-18-0877
[15] = kinase HIPK4, 1 µmol/L single concentration, ref DOI: 10.1371/journal.pone.0092146
[16] = kinase HER4, 1 µmol/L single concentration, ref DOI: 10.1371/journal.pone.0092146
[17] = kinase EPHA6, 1 µmol/L single concentration, ref DOI: 10.1371/journal.pone.0092146
[18] = kinase JAK1, 1 µmol/L single concentration, ref DOI: 10.1371/journal.pone.0092146
[19] = CDK4/CycD3 kinase assay, 1 µmol/L single concentration, ref DOI: 10.1371/journal.pone.0092146
[20] = kinase TSSK1, 1 µmol/L single concentration, ref DOI: 10.1371/journal.pone.0092146
[21] = kinase SIK, 1 µmol/L single concentration, ref DOI: 10.1371/journal.pone.0092146

CC#CC(=O)N1CCC[C@H]1c1nc(-c2ccc(C(=O)Nc3ccccn3)cc2)c2c(N)nccn12 [acalabrutinib]
%-inhibition at 1 µmol/L, HIPK4 [1, 8]: -10%
%-inhibition at 1 µmol/L, HER4 [2, 9]: 78%
%-inhibition at 1 µmol/L, EPHA6 [3, 10]: -2.37%
%-inhibition at 1 µmol/L, JAK1 [4, 11]: -13%
%-inhibition CDK4/CycD3 [5, 12]: -13%
%-inhibition at 1 µmol/L, TSSK1 [6, 13]: -7%
%-inhibition at 1 µmol/L, SIK [7, 14]: 0.256%

CCc1cc2c(cc1N1CCC(N3CCOCC3)CC1)C(C)(C)c1[nH]c3cc(C#N)ccc3c1C2=O [alectinib]
%-inhibition at 1 µmol/L, HIPK4 [1, 8]: 26%
%-inhibition at 1 µmol/L, HER4 [2, 9]: 34%
%-inhibition at 1 µmol/L, EPHA6 [3, 10]: 0.529%
%-inhibition at 1 µmol/L, JAK1 [4, 11]: -10%
%-inhibition CDK4/CycD3 [5, 12]: -1.89%
%-inhibition at 1 µmol/L, TSSK1 [6, 13]: 22%
%-inhibition at 1 µmol/L, SIK [7, 14]: 12%

COc1cc(N2CCC(N3CCN(C)CC3)CC2)ccc1Nc1ncc(Cl)c(Nc2ccccc2P(C)(C)=O)n1 [brigatinib]
%-inhibition at 1 µmol/L, HIPK4 [1]: 81%
%-inhibition at 1 µmol/L, HER4 [2]: 99%
%-inhibition at 1 µmol/L, EPHA6 [3]: 20%
%-inhibition at 1 µmol/L, JAK1 [4]: 31%
%-inhibition CDK4/CycD3 [5]: 40%
%-inhibition at 1 µmol/L, TSSK1 [6]: 101%
%-inhibition at 1 µmol/L, SIK [7]: 99%

Cc1cc(Nc2ncc(Cl)c(Nc3ccccc3S(=O)(=O)C(C)C)n2)c(OC(C)C)cc1C1CCNCC1 [ceritinib]
%-inhibition at 1 µmol/L, HIPK4 [1, 8]: 36%
%-inhibition at 1 µmol/L, HER4 [2, 9]: 51%
%-inhibition at 1 µmol/L, EPHA6 [3, 10]: 29%
%-inhibition at 1 µmol/L, JAK1 [4, 11]: -4.51%
%-inhibition CDK4/CycD3 [5, 12]: 4.63%
%-inhibition at 1 µmol/L, TSSK1 [6, 13]: 101%
%-inhibition at 1 µmol/L, SIK [7, 14]: 15%

O=C(c1ccc(F)c(F)c1Nc1ccc(I)cc1F)N1CC(O)([C@@H]2CCCCN2)C1 [cobimetinib]
%-inhibition at 1 µmol/L, HIPK4 [1, 8]: 1.8%
%-inhibition at 1 µmol/L, HER4 [2, 9]: 11%
%-inhibition at 1 µmol/L, EPHA6 [3, 10]: 1.6%
%-inhibition at 1 µmol/L, JAK1 [4, 11]: -8.53%
%-inhibition CDK4/CycD3 [5, 12]: 0.294%
%-inhibition at 1 µmol/L, TSSK1 [6, 13]: 7%
%-inhibition at 1 µmol/L, SIK [7, 14]: 0.384%

C[C@@H](Oc1cc(-c2cnn(C3CCNCC3)c2)cnc1N)c1c(Cl)ccc(F)c1Cl [crizotinib]
%-inhibition at 1 µmol/L, HIPK4 [1, 15]: 31%
%-inhibition at 1 µmol/L, HER4 [2, 16]: -18%
%-inhibition at 1 µmol/L, EPHA6 [3, 17]: 100%
%-inhibition at 1 µmol/L, JAK1 [4, 18]: 47%
%-inhibition CDK4/CycD3 [5, 19]: 7%
%-inhibition at 1 µmol/L, TSSK1 [6, 20]: 21%
%-inhibition at 1 µmol/L, SIK [7, 21]: 26%

CC(C)(C)c1nc(-c2cccc(NS(=O)(=O)c3c(F)cccc3F)c2F)c(-c2ccnc(N)n2)s1 [dabrafenib]
%-inhibition at 1 µmol/L, HIPK4 [1, 15]: 92%
%-inhibition at 1 µmol/L, HER4 [2, 16]: 23%
%-inhibition at 1 µmol/L, EPHA6 [3, 17]: 88%
%-inhibition at 1 µmol/L, JAK1 [4, 18]: 5.7%
%-inhibition CDK4/CycD3 [5, 19]: 23%
%-inhibition at 1 µmol/L, TSSK1 [6, 20]: 8%
%-inhibition at 1 µmol/L, SIK [7, 21]: 100%

C=CC(=O)N1CCC[C@@H](n2nc(-c3ccc(Oc4ccccc4)cc3)c3c(N)ncnc32)C1 [ibrutinib]
%-inhibition at 1 µmol/L, HIPK4 [1, 8]: 2.6%
%-inhibition at 1 µmol/L, HER4 [2, 9]: 99%
%-inhibition at 1 µmol/L, EPHA6 [3, 10]: 93%
%-inhibition at 1 µmol/L, JAK1 [4, 11]: -10%
%-inhibition CDK4/CycD3 [5, 12]: 4%
%-inhibition at 1 µmol/L, TSSK1 [6, 13]: 9%
%-inhibition at 1 µmol/L, SIK [7, 14]: 8%

CO[C@@H]1[C@H](N(C)C(=O)c2ccccc2)C[C@H]2O[C@]1(C)n1c3ccccc3c3c4c(c5c6ccccc6n2c5c31)C(=O)NC4 [midostaurin]
%-inhibition at 1 µmol/L, HIPK4 [1, 8]: 63%
%-inhibition at 1 µmol/L, HER4 [2, 9]: 77%
%-inhibition at 1 µmol/L, EPHA6 [3, 10]: 19%
%-inhibition at 1 µmol/L, JAK1 [4, 11]: 97%
%-inhibition CDK4/CycD3 [5, 12]: -1.1%
%-inhibition at 1 µmol/L, TSSK1 [6, 13]: 95%
%-inhibition at 1 µmol/L, SIK [7, 14]: 99%

C=CC(=O)Nc1cc(Nc2nccc(-c3cn(C)c4ccccc34)n2)c(OC)cc1N(C)CCN(C)C [osimertinib]
%-inhibition at 1 µmol/L, HIPK4 [1, 8]: 92%
%-inhibition at 1 µmol/L, HER4 [2, 9]: 96%
%-inhibition at 1 µmol/L, EPHA6 [3, 10]: 2.33%
%-inhibition at 1 µmol/L, JAK1 [4, 11]: -6%
%-inhibition CDK4/CycD3 [5, 12]: 2.42%
%-inhibition at 1 µmol/L, TSSK1 [6, 13]: 76%
%-inhibition at 1 µmol/L, SIK [7, 14]: 22%

CC(=O)Nc1cccc(-n2c(=O)n(C3CC3)c(=O)c3c(Nc4ccc(I)cc4F)n(C)c(=O)c(C)c32)c1 [trametinib]
%-inhibition at 1 µmol/L, HIPK4 [1, 15]: 2.78%
%-inhibition at 1 µmol/L, HER4 [2, 16]: 2.34%
%-inhibition at 1 µmol/L, EPHA6 [3, 17]: -2.51%
%-inhibition at 1 µmol/L, JAK1 [4, 18]: -1.83%
%-inhibition CDK4/CycD3 [5, 19]: 5.62%
%-inhibition at 1 µmol/L, TSSK1 [6, 20]: -5%
%-inhibition at 1 µmol/L, SIK [7, 21]: -3%
